Reference: article PMC10094543 (International Journal of Molecular Sciences, 2023)
“And” between values parts separate entries of the source, which are not always exact repeats. Equal values may be shown once. Read-outs that look alike come from different tables or passages of the source.

Tests used:
NgBCCP = assay type: biochemical, Neisseria gonorrhoeae
[1] = target: T1, NgBCCP (Neisseria gonorrhoeae bacterial peroxidase) (Neisseria gonorrhoeae, UniProt Q5F5Z9); test: steady-state kinetics, ABTS oxidation at […] nm; assay type: biochemical
T1 construct: gene NGO_1769; globular domain only (lipid anchor and AAEAP linker absent), pelB signal peptide, C-terminal His-tag; E. coli BL21(DE3) with pEC86; 38 kDa; di-heme c; Ca-dependent monomer/dimer equilibrium, dimer in crystal
T1 sequence (Q5F5Z9 59-387): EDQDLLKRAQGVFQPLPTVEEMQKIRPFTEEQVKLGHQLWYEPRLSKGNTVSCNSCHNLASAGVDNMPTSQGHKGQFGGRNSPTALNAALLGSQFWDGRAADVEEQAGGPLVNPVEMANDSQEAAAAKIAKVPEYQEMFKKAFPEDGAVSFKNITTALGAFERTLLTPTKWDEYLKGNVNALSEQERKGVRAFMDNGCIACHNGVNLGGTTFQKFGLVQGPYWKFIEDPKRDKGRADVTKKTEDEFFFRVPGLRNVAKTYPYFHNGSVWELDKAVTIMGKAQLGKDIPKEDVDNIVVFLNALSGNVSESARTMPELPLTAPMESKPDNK

[2] = target: mixed-valence NgBCCP (P heme); details: read-out: Kapp (apparent dissociation constant); pH 6
N. europaea BCCP = details: pH 7; cited from earlier work
P. aeruginosa BCCP = details: cited from earlier work

| Compound | Vmax app (NgBCCP) | a (α) (NgBCCP) | b (β) (NgBCCP) | mechanism of inhibition (NgBCCP) | Ki (NgBCCP; pH 7.5) | mechanism of inhibition (NgBCCP; pH 7.5) | Ki [1] | Kd [2] | Ki (N. europaea BCCP) | inhibition mechanism (P. aeruginosa BCCP) | Ki (P. aeruginosa BCCP; pH 6) |
| --- | --- | --- | --- | --- | --- | --- | --- | --- | --- | --- | --- |
| c1c[nH]cn1 [imidazole] | 0.55 ± 0.01 µM/s and 0.49 ± 0.01 µM/s and 0.48 ± 0.01 µM/s and 0.65 ± 0.01 µM/s and 0.44 ± 0.02 µM/s and 0.63 ± 0.04 µM/s and 0.58 ± 0.02 µM/s | 2.8 | 0.0 | partially uncompetitive | 9 ± 4 mM | non-competitive/partially competitive | 9 ± 4 mM |  |  |  |  |
| azide | 0.56 ± 0.003 µM/s and 0.53 ± 0.004 µM/s and 0.71 ± 0.001 µM/s and 0.66 ± 0.010 µM/s and 0.59 ± 0.001 µM/s | 2.4 | 0.0 |  |  | non-competitive/partially competitive |  | 3.8 mM | 4.7 mM | non-competitive | 3.1 mM |
